According to US10064926B2, “Peptides and combination of peptides for use in immunotherapy against hepatocellular carcinoma (HCC) and other cancers” (Immatics biotechnologies GmbH, priority 2014, dated 2018):

Key:
[1] = test system: CD8+ T cells of healthy HLA-A*02+ donors; assay: In vitro immunogenicity: priming of CD8+ T cells with aAPCs loaded with peptide/MHC and anti-CD28, multimer staining; format: cell-based, human; details: Table 11A; for donors (positive): percentage of positive donors; for wells (positive): percentage of positive wells
Description: In order to obtain information regarding the immunogenicity of the TUMAPs of the present invention, the inventors performed investigations using an in vitro T-cell priming assay based on repeated stimulations of CD8+ T cells with artificial antigen presenting cells (aAPCs) loaded with peptide/MHC complexes and anti-CD28 antibody.
In order to perform in vitro stimulations by artificial antigen presenting cells loaded with peptide-MHC complex (pMHC) and anti-CD28 antibody, the inventors first isolated CD8+ T cells from fresh HLA-A*02 leukapheresis products via positive selection using CD8 microbeads (Miltenyi Biotec, Bergisch-Gladbach, Germany) of healthy donors obtained from the University clinics Mannheim, Germany, after informed consent.
PBMCs and isolated CD8+ lymphocytes were incubated in T-cell medium (TCM) until use consisting of RPMI-Glutamax (Invitrogen, Karlsruhe, Germany) supplemented with 10% heat inactivated human AB serum (PAN-Biotech, Aidenbach, Germany), 100 U/ml Penicillin/100 μg/ml Streptomycin (Cambrex, Cologne, Germany), 1 mM sodium pyruvate (CC Pro, Oberdorla, Germany), 20 μg/ml Gentamycin (Cambrex). 2.5 ng/ml IL-7 (PromoCell, Heidelberg, Germany) and 10 U/ml IL-2 (Novartis Pharma, Nürnberg, Germany) were also added to the TCM at this step.
Generation of pMHC/anti-CD28 coated beads, T-cell stimulations and readout was performed in a highly defined in vitro system using four different pMHC molecules per stimulation condition and 8 different pMHC molecules per readout condition.
The purified co-stimulatory mouse IgG2a anti human CD28 Ab 9.3 (Jung et al., 1987) was chemically biotinylated using Sulfo-N-hydroxysuccinimidobiotin as recommended by the manufacturer (Perbio, Bonn, Germany). Beads used were 5.6 μm diameter streptavidin coated polystyrene particles (Bangs Laboratories, Illinois, USA).
pMHC used for positive and negative control stimulations were A*0201/MLA-001 (peptide […] from modified Melan-A/MART-1) and A*0201/DDX5-001 ([…] from DDX5), respectively.
800.000 beads/200 μl were coated in 96-well plates in the presence of 4×12.5 ng different biotin-pMHC, washed and 600 ng biotin anti-CD28 were added subsequently in a volume of 200 μl. Stimulations were initiated in 96-well plates by co-incubating […] CD8+ T cells with 2×10^5 washed coated beads in 200 μl TCM supplemented with 5 ng/ml IL-12 (PromoCell) for 3 days at 37° C. Half of the medium was then exchanged by fresh TCM supplemented with 80 U/ml IL-2 and incubating was continued for 4 days at 37° C. This stimulation cycle was performed for a total of three times. For the pMHC multimer readout using 8 different pMHC molecules per condition, a two-dimensional combinatorial coding approach was used as previously described (Andersen et al., 2012) with minor modifications encompassing coupling to 5 different fluorochromes. Finally, multimeric analyses were performed by staining the cells with Live/dead near IR dye (Invitrogen, Karlsruhe, Germany), CD8-FITC antibody clone SK1 (BD, Heidelberg, Germany) and fluorescent pMHC multimers. For analysis, a BD LSRII SORP cytometer equipped with appropriate lasers and filters was used. Peptide specific cells were calculated as percentage of total CD8+ cells. Evaluation of multimeric analysis was done using the FlowJo software (Tree Star, Oreg., USA). In vitro priming of specific multimer+ CD8+ lymphocytes was detected by comparing to negative control stimulations.
Exemplary flow cytometry results after TUMAP-specific multimer staining for three peptides of the invention are shown in FIG. 3 and FIG. 4 together with corresponding negative controls.
CD8+ T cells were primed using artificial APCs coated with anti-CD28 mAb and HLA-A*02 in complex with IMA-APOB-002 (Seq ID No 7) peptide (A, right panel) or IMA-APOB-003 (B, right panel, Seq ID No 1), or IMA-ALDH1L1-001 (C, right panel, Seq ID No 2), respectively. […]

HLA-A*02 = HLA-A*02 (Homo sapiens, UniProt P04439, D140Y/D185E/D98H/E176V/E277Q/G131W/G231S/I119V/I121R/I166T/I218V/N151K/N90K/P208A/P217A/Q86G/Q94H/R138H/R169H); assay: UV-ligand exchange / peptide binding to MHC class I (beta2m ELISA); details: peptide exchange yield
Summary of the method: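 Peptide-MHC complexes generated by UV-mediated exchange of a photocleavable ligand for the test peptide. Exchange yield measured by streptavidin-capture ELISA detecting β2m of stabilized complexes (HRP anti-β2m, TMB, 450 nm). Samples diluted 100-fold, quantified against refolded HLA-A*0201 monomer standards (15-500 ng/ml).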

[2] = Table 10A, UV-ligand exchange, β2m ELISA

Row | Substance | donors (positive) [1] | wells (positive) [1] | Peptide exchange (MHC class I binding score) (HLA-A*02; [2]) | Peptide exchange (MHC class I binding score) (HLA-A*02; Table 10B, HLA-A*02 peptides)
1 | 1 (VMAPFTMTI; listed as Homo sapiens) [compound 1] | ++++ (>=70% = ++++) | ++ (20%-49% = ++) | ++++ (>=75% = ++++) | “++++” (≥75% = ++++)
2 | 2 (KLQAGTVFV; listed as Homo sapiens) [compound 2] | ++++ (>=70% = ++++) | ++ (20%-49% = ++) | +++ (50%-75% = +++) | “+++” (≥50 = +++)
3 | 4 (KLQDFSDQL; listed as Homo sapiens) [compound 4] | ++++ (>=70% = ++++) | + (<20% = +) | ++++ (>=75% = ++++) | “++++” (≥75% = ++++)
4 | 6 (KLSPTVVGL; listed as Homo sapiens) [compound 6] | ++ (20%-49% = ++) | + (<20% = +) | +++ (50%-75% = +++) | “+++” (≥50 = +++)
5 | 7 (ALVDTLKFV; listed as Homo sapiens) [compound 7] | ++++ (>=70% = ++++) | + (<20% = +) | ++++ (>=75% = ++++) | “++++” (≥75% = ++++)
6 | 10 (SLLEEFDFHV; listed as Homo sapiens) [compound 10] | ++ (20%-49% = ++) | + (<20% = +) | ++++ (>=75% = ++++) | “++++” (≥75% = ++++)
7 | 11 (SLSQELVGV; listed as Homo sapiens) [compound 11] | ++ (20%-49% = ++) | + (<20% = +) | +++ (50%-75% = +++) | “+++” (≥50 = +++)
8 | 12 (FLAELAYDL; listed as Homo sapiens) [compound 12] | ++++ (>=70% = ++++) | + (<20% = +) | ++++ (>=75% = ++++) | “++++” (≥75% = ++++)
9 | 14 (ALADLTGTVV; listed as Homo sapiens) [compound 14] | ++ (20%-49% = ++) | + (<20% = +) | ++++ (>=75% = ++++) | “++++” (≥75% = ++++)
10 | 15 (LLYGHTVTV; listed as Homo sapiens) [compound 15] | ++++ (>=70% = ++++) | ++ (20%-49% = ++) | ++++ (>=75% = ++++) | “++++” (≥75% = ++++)
11 | 16 (SLLGGNIRL; listed as Homo sapiens) [compound 16] | ++++ (>=70% = ++++) | ++ (20%-49% = ++) | ++++ (>=75% = ++++) | “++++” (≥75% = ++++)
12 | 219 (GVMAGDIYSV; listed as Homo sapiens) [compound 219] | ++++ (>=70% = ++++) | + (<20% = +) | ++++ (>=75% = ++++) | “++++” (≥75% = ++++)
13 | 224 (ALASVIKEL; listed as Homo sapiens) [compound 224] | +++ (50%-69% = +++) | + (<20% = +) | ++++ (>=75% = ++++) | “+++” (≥50 = +++)
14 | 225 (KMDPVAYRV; listed as Homo sapiens) [compound 225] | ++++ (>=70% = ++++) | +++ (50%-69% = +++) | +++ (50%-75% = +++) | “+++” (≥50 = +++)
15 | 226 (AVLGPLGLQEV; listed as Homo sapiens) [compound 226] | ++++ (>=70% = ++++) | + (<20% = +) | +++ (50%-75% = +++) | “+++” (≥50 = +++)
16 | 227 (ALLKVNQEL; listed as Homo sapiens) [compound 227] | +++ (50%-69% = +++) | + (<20% = +) | ++++ (>=75% = ++++) | “++++” (≥75% = ++++)
17 | 228 (YLITSVELL; listed as Homo sapiens) [compound 228] | ++ (20%-49% = ++) | + (<20% = +) | ++++ (>=75% = ++++) | “++++” (≥75% = ++++)
18 | 230 (VLTEFTREV; listed as Homo sapiens) [compound 230] | ++++ (>=70% = ++++) | + (<20% = +) | ++++ (>=75% = ++++) | “++++” (≥75% = ++++)
19 | 232 (KLAEIVKQV; listed as Homo sapiens) [compound 232] | +++ (50%-69% = +++) | + (<20% = +) | ++++ (>=75% = ++++) | “++++” (≥75% = ++++)
20 | 301 (VLADFGARV; listed as Homo sapiens) [compound 301] | ++++ (>=70% = ++++) | ++ (20%-49% = ++) | +++ (50%-75% = +++) | 
21 | 304 (SLIDQFFGV; listed as Homo sapiens) [compound 304] | ++++ (>=70% = ++++) | + (<20% = +) | ++++ (>=75% = ++++) | 
